According to US7161032B2, “Sulfonamide derivatives, insecticides for agricultural and horticultural use, and usage thereof” (Nihon Nohyaku Co., Ltd., priority 2002, dated 2007):

Key:
Format in all cases: in vivo
[1] = system: Diamond Back Moth (Plutella xylostella); assay: Insecticidal effect on diamond back moth (Test Example 1): egg-bearing Chinese cabbage seedling immersed in 50 ppm liquid chemical
Outline: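 Seedlings bearing 2-day-old eggs dipped about 30 s in 50 ppm formulated compound, air-dried, held at 25° C. Hatched larvae counted 6 days after immersion; mortality calculated and graded by criterion. Triplicate groups of 10 insects.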

[2] = system: Common Cutworm (Spodoptera litura); assay: Insecticidal effect on common cutworm (Test Example 2): cabbage leaf piece immersed in 50 ppm liquid chemical; conditions: common cutworm (Spodoptera litura) second-instar larvae, 8 days after inoculation, 25° C.
Outline: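 Cabbage leaf pieces (cv. Shikidori) dipped ~30 s in formulated compound at 50 ppm and air-dried. Second-instar larvae added, kept at 25° C. Dead and alive counted at 8 days to give % mortality, scored against a criterion scale; three groups of 10 insects.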

[3] = system: Smaller Tea Tortrix (Adoxophyes sp.); assay: Insecticidal effect on smaller tea tortrix (Test Example 3): tea leaves immersed in 50 ppm liquid chemical; conditions: smaller tea tortrix (Adoxophyes sp.) larvae, 8 days after inoculation, 25° C., humidity 70%
Outline: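 Tea leaves dipped about 30 seconds in 50 ppm compound preparation, air-dried, then infested with larvae and held at 25° C and 70% humidity. Dead and alive counted 8 days after inoculation; triplicate groups of 10 insects.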

Structure (SMILES)	Insecticidal effect (mortality grade), Test Example 1 [1]	Insecticidal effect (mortality grade), Test Example 2 [2]	Insecticidal effect (mortality grade), Test Example 3 [3]
CCNS(=O)(=O)CC(C)NC(=O)c1ccccc1C(=O)Nc1ccc(C(F)(C(F)(F)F)C(F)(F)F)cc1C (stereo not drawn) [1-207]	A (Mortality 100%)	A (Mortality 100%)	E (Mortality less than 50%)
CCN(CC)S(=O)(=O)CC(C)(C)NC(=O)c1c(I)cccc1C(=O)Nc1ccc(OC(F)(F)F)cc1C [1-277]	A (Mortality 100%)	A (Mortality 100%)	A (Mortality 100%)
Cc1cc(C(F)(C(F)(F)F)C(F)(F)F)ccc1NC(=O)c1cccc(I)c1C(=O)NC(C)(C)CS(=O)(=O)NCCO [1-78]	A (Mortality 100%)	E (Mortality less than 50%)	A (Mortality 100%)
Cc1cc(C(F)(C(F)(F)F)C(F)(F)F)ccc1NC(=O)c1cccc(I)c1C(=O)NC(C)(C)CS(=O)(=O)N1CCSCC1C (stereo not drawn) [1-61]	A (Mortality 100%)	A (Mortality 100%)	A (Mortality 100%)
COc1ccccc1CNS(=O)(=O)CC(C)NC(=O)c1c(I)cccc1C(=O)Nc1ccc(C(F)(C(F)(F)F)C(F)(F)F)cc1C (stereo not drawn) [1-27]	A (Mortality 100%)	A (Mortality 100%)	A (Mortality 100%)
CCN(CC)S(=O)(=O)CC(C)NC(=O)c1c(I)cccc1C(=O)Nc1ccc(Cl)c(Cl)c1Cl (stereo not drawn) [1-267]	A (Mortality 100%)	C (Mortality 89–80%)	E (Mortality less than 50%)
COc1ccc(NS(=O)(=O)CC(C)NC(=O)c2c(I)cccc2C(=O)Nc2ccc(C(F)(C(F)(F)F)C(F)(F)F)cc2C)cc1 (stereo not drawn) [1-111]	A (Mortality 100%)	E (Mortality less than 50%)	E (Mortality less than 50%)
CCCNS(=O)(=O)CC(C)NC(=O)c1c(I)cccc1C(=O)Nc1ccc(C(F)(C(F)(F)F)C(F)(F)F)cc1C (stereo not drawn) [1-7]	A (Mortality 100%)	A (Mortality 100%)	A (Mortality 100%)
Cc1cc(C(F)(C(F)(F)F)C(F)(F)F)ccc1NC(=O)c1cccc(I)c1C(=O)NC(C)CS(=O)(=O)Nc1ccccc1F (stereo not drawn) [1-107]	A (Mortality 100%)	C (Mortality 89–80%)	A (Mortality 100%)
CSCCNS(=O)(=O)CC(C)(C)NC(=O)c1c(I)cccc1C(=O)Nc1ccc(C(F)(C(F)(F)F)C(F)(F)F)cc1C [1-81]	A (Mortality 100%)	A (Mortality 100%)	A (Mortality 100%)
Cc1cc(C(F)(C(F)(F)F)C(F)(F)F)ccc1NC(=O)c1cccc(I)c1C(=O)NC(C)CS(=O)(=O)NC(C)CS(C)(=O)=O (stereo not drawn) [1-93]	A (Mortality 100%)	A (Mortality 100%)	A (Mortality 100%)
Cc1cc(C(F)(C(F)(F)F)C(F)(F)F)ccc1NC(=O)c1cccc(I)c1C(=O)NC(C)CS(=O)(=O)NCc1ccccc1F (stereo not drawn) [1-23]	A (Mortality 100%)	A (Mortality 100%)	A (Mortality 100%)
Cc1cc(C(F)(C(F)(F)F)C(F)(F)F)ccc1NC(=O)c1cccc(I)c1C(=O)NC(C)CS(=O)(=O)NCc1ccncc1 (stereo not drawn) [1-41]	A (Mortality 100%)	A (Mortality 100%)	A (Mortality 100%)
CCN(CC)S(=O)(=O)CC(C)NC(=O)c1c(I)cccc1C(=O)Nc1ccc(C(F)(F)C(F)(F)F)cc1C (stereo not drawn) [1-301]	A (Mortality 100%)	A (Mortality 100%)	A (Mortality 100%)
Cc1cc(C(F)(C(F)(F)F)C(F)(F)F)ccc1NC(=O)c1cccc(I)c1C(=O)NC(C)CS(=O)(=O)NCc1ccccc1[N+](=O)[O-] (stereo not drawn) [1-28]	A (Mortality 100%)	A (Mortality 100%)	A (Mortality 100%)
CCNS(=O)(=O)CC(C)NC(=O)c1c(I)cccc1C(=O)Nc1ccc(C(F)(C(F)(F)F)C(F)(F)F)cc1C (stereo not drawn) [1-4, N^2-(2-ethylsulfamoyl-1-methylethyl)-3-iodo-N^1-{2-methyl-4-[1,2,2,2-tetrafluoro-1-(trifluoromethyl)ethyl]phenyl}phthalamide]	A (Mortality 100%)	A (Mortality 100%)	A (Mortality 100%)
CCNS(=O)(=O)CCCC(C)(C)NC(=O)c1c(I)cccc1C(=O)Nc1ccc(C(F)(C(F)(F)F)C(F)(F)F)cc1C [1-200]	A (Mortality 100%)	A (Mortality 100%)	A (Mortality 100%)
Cc1cc(C(F)(C(F)(F)F)C(F)(F)F)ccc1NC(=O)c1cccc(I)c1C(=O)NC(C)CS(=O)(=O)NCc1ccccc1Cl (stereo not drawn) [1-24]	A (Mortality 100%)	A (Mortality 100%)	A (Mortality 100%)
CCN(CC)S(=O)(=O)CC(C)NC(=O)c1c(I)cccc1C(=O)Nc1ccc(OC(F)(F)F)cc1Cl (stereo not drawn) [1-285]	A (Mortality 100%)	C (Mortality 89–80%)	E (Mortality less than 50%)
Cc1cc(C(F)(C(F)(F)F)C(F)(F)F)ccc1NC(=O)c1cccc(I)c1C(=O)NC(C)(C)CS(=O)(=O)NCCS(=O)(=O)c1ccccc1 [1-89]	A (Mortality 100%)	A (Mortality 100%)	A (Mortality 100%)
Cc1cc(C(F)(C(F)(F)F)C(F)(F)F)ccc1NC(=O)c1cccc(Br)c1C(=O)NC(C)CS(=O)(=O)N(C)C (stereo not drawn) [1-213]	A (Mortality 100%)	A (Mortality 100%)	A (Mortality 100%)
CCN(CC)C(=O)CNS(=O)(=O)CC(C)NC(=O)c1c(I)cccc1C(=O)Nc1ccc(C(F)(C(F)(F)F)C(F)(F)F)cc1C (stereo not drawn) [1-105]	A (Mortality 100%)	A (Mortality 100%)	E (Mortality less than 50%)
CCN(CC)S(=O)(=O)CC(C)(C)NC(=O)c1c(Br)cccc1C(=O)Nc1ccc(C(F)(C(F)(F)F)C(F)(F)F)cc1C [1-219]	A (Mortality 100%)	A (Mortality 100%)	A (Mortality 100%)
CCN(CC)S(=O)(=O)CC(C)NC(=O)c1c(Cl)cccc1C(=O)Nc1ccc(C(F)(C(F)(F)F)C(F)(F)F)cc1C (stereo not drawn) [1-211]	A (Mortality 100%)	A (Mortality 100%)	A (Mortality 100%)
CCNC(=O)C(C)NS(=O)(=O)CC(C)NC(=O)c1c(I)cccc1C(=O)Nc1ccc(C(F)(C(F)(F)F)C(F)(F)F)cc1C (stereo not drawn) [1-104]	A (Mortality 100%)	A (Mortality 100%)	A (Mortality 100%)
Cc1cc(C(F)(C(F)(F)F)C(F)(F)F)ccc1NC(=O)c1cccc(I)c1C(=O)NC(C)CS(=O)(=O)N1CCS(=O)(=O)CC1 (stereo not drawn) [1-57]	A (Mortality 100%)	A (Mortality 100%)	A (Mortality 100%)
CC[S+]([O-])CCNS(=O)(=O)CC(C)(C)NC(=O)c1c(I)cccc1C(=O)Nc1ccc(C(F)(F)C(F)(F)F)cc1C (stereo not drawn) [1-308]	A (Mortality 100%)	A (Mortality 100%)	A (Mortality 100%)
Cc1cc(C(F)(C(F)(F)F)C(F)(F)F)ccc1NC(=O)c1cccc(I)c1C(=O)N[C@@H](C)CS(=O)(=O)N[C@@H](C)CS(C)(=O)=O [1-149]	A (Mortality 100%)	A (Mortality 100%)	A (Mortality 100%)
Cc1cc(C(F)(C(F)(F)F)C(F)(F)F)ccc1NC(=O)c1cccc(I)c1C(=O)NC(C)CS(N)(=O)=O (stereo not drawn) [1-1]	A (Mortality 100%)	A (Mortality 100%)	A (Mortality 100%)
Cc1cc(C(F)(C(F)(F)F)C(F)(F)F)ccc1NC(=O)c1cccc(I)c1C(=O)NC(C)(C)CS(=O)(=O)NCCSc1ccccc1 [1-87]	A (Mortality 100%)	A (Mortality 100%)	A (Mortality 100%)
